Measured values: US11718628B2, “SREBP inhibitors comprising a 6-membered central ring” (Capulus Therapeutics, LLC, priority 2018, dated 2023)
In brackets after ≈: the same amount, converted by molar mass.

Tests used:
[1] = Half-life in mouse liver microsomes; assay type: in vitro ADME; conditions: mouse, liver microsomes, read-out: H: half-life of mouse liver microsomes
Experimental: (§1) Half-life Human Microsomes: Compounds were evaluated for stability in human liver microsomes. A 10 mM stock solution of the compound being evaluated was prepared in DMSO and diluted with water:acetonitrile (1:1) to a concentration of 1 mM. A working concentration of 100 μM was prepared by further dilution with water:acetonitrile (1:1). To make the preincubation mixture, 2.5 μL of the diluted compound was combined with 75 μL of human liver microsomes at 3.33 mg/mL, and 85 μL of 100 mM potassium phosphate buffer, and this mixture was pre-incubated for 10 min at 37° C. To make the 60 minute mixture without cofactor, 32.5 μL of the preincubation mixture was combined with 17.5 μL of 100 mM potassium phosphate buffer and incubated for 60 min at 37° C. To make the 0 min sample with cofactor (NADPH), 16.25 μL of the preincubation mixture was combined with 200 μL of acetonitrile containing internal standard and 8.75 μL of cofactor (NADPH). To make the incubation mixture, 62 μL of cofactor (2.85 mM) was combined with the remaining incubation mixture, and incubated for 60 min at 37° C. To prepare the sample mixture to be evaluated, 25 μL incubation mixture was combined with 200 μL of acetonitrile containing internal standard and vortexed for 5 min at 1200 rpm, then centrifuged for 10 min at 4000 rpm. The supernatant was diluted 2 fold with water and injected on LC-MS/MS. The sample mixture was evaluated by LC-MS/MS using 10 mM ammonium acetate with 0.1% FA as the aqueous mobile phase, and methanol as the organic mobile phase.
Half-life Mouse Microsomes: Compounds were evaluated in mouse liver microsomes following a similar procedure as described above for human liver microsomes. A similar procedure could be used to evaluate compounds in rat liver microsomes.

[2] = Half-life in human liver microsomes; assay type: in vitro ADME; conditions: human, liver microsomes, NADPH, 37° C., read-out: G: half-life human liver microsomes
Experimental: as §1

Kinetic solubility = assay type: physicochemical; conditions: aqueous buffer, kinetic from dmso stock, pH 7.4 buffer, room temperature, 1.0% DMSO, read-out: I: kinetic solubility class
Experimental: Kinetic Solubility Procedure: A 10 mM stock solution of a compound was prepared in DMSO, then 4 μL of the stock was added to a deep well plate containing 396 μL of pH 7.4 buffer. The sample plate was vortexed at 800 rpm for 24 h on thermomixer at room temperature. The plate was sealed well during the incubation process. The DMSO content in the sample was 1.0%. The concentration of the evaluated compound in the final incubation was 100 μM. At the end of the incubation period, the sample plate was centrifuged at 4000 rpm for 10 min and analyzed in LC-UV against a calibration curve (CC). Values <10 μg/mL=Low; 10 to 60 μg/mL=Medium; >60 μg/mL=High.

SMILES	half-life at 1 µM [1]	half-life at 1 µM [2]	solubility kinetic at 24 h (Kinetic solubility)
CC(C)(C)c1cc(-c2cncc(-c3cc(C(=O)N4CCC(O)CC4)ccc3Cl)c2)ccn1	1860 min	2.62 min	0.01 to 0.06 mg/mL (≈ 22.2 to 133 µM)
Cc1cc(S(=O)(=O)NC(C)C)ccc1-c1cncc(-c2ccnc(C(C)(C)C)c2)c1	177 min	1.69 min	0.01 to 0.06 mg/mL (≈ 23.6 to 142 µM)
CC(C)NS(=O)(=O)Nc1ccc(-c2cncc(-c3ccnc(C(C)(C)C)c3)c2)c(Cl)c1	178 min	27.3 min	0.01 to 0.06 mg/mL (≈ 21.8 to 131 µM)
Cc1c(-c2ccnc(C(C)(C)C)c2)cncc1-c1ccc(C(=O)N2CCCC(O)C2)cc1Cl (stereo not drawn)	25.5 min	11.3 min	< 0.01 mg/mL
CC(C)(CNC(=O)c1ccc(-c2cncc(-c3ccnc(C(C)(C)C)c3)c2)c(Cl)c1)C(=O)O	9.75 min	2.98 min	0.01 to 0.06 mg/mL (≈ 21.5 to 129 µM)
CC(C)(C)c1cc(-c2cc(-c3ccc(C(=O)N4CCC(O)CC4)cc3Cl)cc3cnccc23)ccn1	33.8 min	11.4 min	0.01 to 0.06 mg/mL (≈ 20 to 120 µM)
CC(C)(C)c1cc(-c2cc(-c3ccc(C(=O)N4CCC(O)CC4)cc3Cl)c3ccncc3c2)ccn1	108 min	119 min	0.01 to 0.06 mg/mL (≈ 20 to 120 µM)
CC(C)(C)c1cc(-c2cncc(-c3ccc(NC(=O)OC4CCNCC4)cc3Cl)c2)ccn1	1090 min	1.78 min	< 0.01 mg/mL
CC1(c2cc(-c3cncc(-c4ccc(C(=O)N5CCC(O)CC5)cc4Cl)c3)ccn2)OCCO1	101 min	9.74 min	0.01 to 0.06 mg/mL (≈ 20.8 to 125 µM)
CC(C)(C)c1cc(-c2cc(-c3ccc(C(=O)N4CCC(O)CC4)cc3Cl)cc3ncccc23)ccn1	10.2 min	19 min	< 0.01 mg/mL
CC(C)(C)c1cc(-c2cc(-c3ccc(C(=O)N4CCC(O)CC4)cc3Cl)c3cccnc3c2)ccn1	19.3 min	2.07 min	< 0.01 mg/mL
Cc1c(-c2ccnc(C(C)(C)C)c2)cncc1-c1ccc(C(=O)N2CCC(O)CC2)cc1Cl	19.5 min	3.21 min	0.01 to 0.06 mg/mL (≈ 21.6 to 129 µM)
CN(C)c1cc(-c2ccnc(C(C)(C)C)c2)cc(-c2ccc(C(=O)N3CCC(O)CC3)cc2Cl)c1	13.6 min	20.7 min	< 0.01 mg/mL
CC(C)(C)c1cc(-c2cc(C#N)cc(-c3ccc(C(=O)N4CCC(O)CC4)cc3Cl)c2)ccn1	119 min	16.1 min	< 0.01 mg/mL
CC(C)(C)c1cc(-c2cc(F)cc(-c3ccc(C(=O)N4CCC(O)CC4)cc3Cl)c2)ccn1	13.6 min	74.6 min	< 0.01 mg/mL
O=C(c1ccc(-c2cncc(-c3ccnc4c3CCC4)c2)c(Cl)c1)N1CCC(O)CC1	27.4 min	9.79 min	0.01 to 0.06 mg/mL (≈ 23 to 138 µM)
CC(C)(C)c1cc(-c2cncc(-c3ccc(NC(=O)OC4CCC(O)CC4)cc3Cl)c2)ccn1 (stereo not drawn)	120 min	31.3 min	< 0.01 mg/mL
CC(C)(CO)c1cc(-c2cncc(-c3ccc(NS(C)(=O)=O)cc3Cl)c2)ccn1	> 120 min	6.5 min	< 0.01 mg/mL
CC(C)OC(=O)Nc1ccc(-c2cncc(-c3ccnc(C(C)(C)CO)c3)c2)c(Cl)c1	87.8 min	21.5 min	< 0.01 mg/mL
CC(C)(C)c1cc(-c2cncc(-c3ccc(C(=O)N4CC5CCC(C4)C5O)cc3Cl)c2)ccn1 (stereo not drawn)	21.3 min	15.4 min	< 0.01 mg/mL
CC(C)(C)c1cc(-c2cncc(-c3ccc(C(=O)N4CC(O)C(O)C4)cc3Cl)c2)ccn1 (stereo not drawn)	75.6 min	29.4 min	0.01 to 0.06 mg/mL (≈ 22.1 to 133 µM)
CC(C)(C)c1cc(-c2cncc(-c3ccc(C(=O)N4C[C@@H](O)[C@@H](O)C4)cc3Cl)c2)ccn1	36.2 min	27.1 min	0.01 to 0.06 mg/mL (≈ 22.1 to 133 µM)
